Measured values as given in patent publication US11702404B2, “GLP-1R modulating compounds” (priority 2019, dated 2023).

target: GLP-1R (Homo sapiens, UniProt P43220); assay: GLP-1R activation: cAMP increase in CHO cells stably expressing GLP-1R; format: cell-based; settings: cAMP increase, CHO cells stably expressing GLP-1R, 10 point dose response, 30 minutes incubation; read-out: EC50
Sequence (P43220 24-463): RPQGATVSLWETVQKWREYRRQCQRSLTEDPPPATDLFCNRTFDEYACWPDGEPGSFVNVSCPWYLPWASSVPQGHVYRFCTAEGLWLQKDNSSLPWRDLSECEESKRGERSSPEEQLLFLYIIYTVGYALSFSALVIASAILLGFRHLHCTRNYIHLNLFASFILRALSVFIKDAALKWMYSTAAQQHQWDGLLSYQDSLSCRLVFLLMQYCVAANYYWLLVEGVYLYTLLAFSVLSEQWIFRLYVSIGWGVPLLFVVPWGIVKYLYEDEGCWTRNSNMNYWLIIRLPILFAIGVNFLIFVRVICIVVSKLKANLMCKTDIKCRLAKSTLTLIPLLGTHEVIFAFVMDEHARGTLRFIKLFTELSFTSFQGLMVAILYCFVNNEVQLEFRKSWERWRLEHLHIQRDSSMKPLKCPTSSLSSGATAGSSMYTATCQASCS

Row | Compound | EC50
1 | CC(C)(CF)Cn1c(Cc2ccc(-c3cccc(OCc4ccc(C#N)cc4F)n3)cc2F)nc2ccc(C(=O)O)cc21 [Example 11, 2-(4-(6-((4-cyano-2-fluorobenzyl)oxy)pyridin-2-yl)-2-fluorobenzyl)-1-(3-fluoro-2,2-dimethylpropyl)-1H-benzo[d]imidazole-6-carboxylic acid] | 2.7 nM
2 | CC12COC(Cn3c(Cc4cc(F)c(-c5cccc(OCc6ccc(C#N)cc6F)n5)cc4F)nc4ccc(C(=O)O)cc43)(C1)C2 [Example 741] | 22.6 nM
3 | COCCn1c(Cc2ccc(-c3cccc(OCc4ccc(C#N)c5c4OCCC5)n3)cc2F)nc2ccc(C(=O)O)cc21 [Example 144, 2-(4-(6-((5-cyanochroman-8-yl)methoxy)pyridin-2-yl)-2-fluorobenzyl)-1-(2-methoxyethyl)-1H-benzo[d]imidazole-6-carboxylic acid] | 20.7 nM
4 | CO[C@H]1C[C@@H](n2c(Cc3cc(F)c(-c4cccc(OCc5ccc(C#N)cc5F)n4)cc3F)nc3ccc(C(=O)O)cc32)C1 [Example 566, 2-(4-(6-((4-cyano-2-fluorobenzyl)oxy)pyridin-2-yl)-2,5-difluorobenzyl)-1-((1s,3s)-3-methoxycyclobutyl)-1H-benzo[d]imidazole-6-carboxylic acid] | 255 nM
5 | COC1(Cn2c(Cc3cc(F)c(-c4cccc(OCc5ccc(C#N)cc5F)n4)cc3F)nc3ccc(C(=O)O)cc32)CN(C(=O)C2CC2)C1 [Example 889, 2-(4-(6-((4-cyano-2-fluorobenzyl)oxy)pyridin-2-yl)-2,5-difluorobenzyl)-1-((1-(cyclopropanecarbonyl)-3-methoxyazetidin-3-yl)methyl)-1H-benzo[d]imidazole-6-carboxylic acid] | 69.5 nM
6 | O=C(O)c1ccc2nc(Cc3cc(F)c(-c4nc(OCc5ccc(C(F)F)cc5F)ccc4F)cc3F)n(C[C@@H]3CCO3)c2c1 [Example 787] | 0.08 nM
7 | COCCn1c(Cc2ccc(-c3cccc(OCC(=O)c4ccc(OC)cc4)n3)cc2F)nc2ccc(C(=O)O)cc21 [Example 215, 2-(2-fluoro-4-(6-(2-(4-methoxyphenyl)-2-oxoethoxy)pyridin-2-yl)benzyl)-1-(2-methoxyethyl)-1H-benzo[d]imidazole-6-carboxylic acid] | 62.7 nM
8 | COCCn1c(Cc2ccc(-c3cccc(OCc4cccc5c4OCCN5C)n3)cc2F)nc2ccc(C(=O)O)cc21 [Example 149, 2-(2-fluoro-4-(6-((4-methyl-3,4-dihydro-2H-benzo[b][1,4]oxazin-8-yl)methoxy)pyridin-2-yl)benzyl)-1-(2-methoxyethyl)-1H-benzo[d]imidazole-6-carboxylic acid] | 2040 nM
9 | COCCn1c(Cc2ccc(-c3cccnc3OCc3ccccc3)cc2F)nc2ccc(C(=O)O)cc21 [Example 183, 2-(4-(2-(benzyloxy)pyridin-3-yl)-2-fluorobenzyl)-1-(2-methoxyethyl)-1H-benzo[d]imidazole-carboxylic acid] | 3960 nM
10 | COCCn1c(Cc2ncc(-c3cccc(OCc4ccc(C#N)cc4F)n3)cn2)nc2ccc(C(=O)O)cc21 [Example 58, 2-((5-(6-((4-cyano-2-fluorobenzyl)oxy)pyridin-2-yl)pyrimidin-2-yl)methyl)-1-(2-methoxyethyl)-1H-benzo[d]imidazole-6-carboxylic acid] | 28.8 nM
11 | COCCn1c(Cc2ccc(-c3cccc(OCc4ccc(C(F)F)cc4F)n3)cc2F)nc2ccc(C(=O)O)cc21 [Example 150, 2-(4-(6-((4-(difluoromethyl)-2-fluorobenzyl)oxy)pyridin-2-yl)-2-fluorobenzyl)-1-(2-methoxyethyl)-1H-benzo[d]imidazole-6-carboxylic acid] | 3.35 nM
12 | COCCn1c(Cc2cc(F)c(-c3cccc(OCc4ccc(C#N)cc4F)n3)c(F)c2F)nc2ccc(C(=O)O)cc21 [Example 856, 2-(4-(6-((4-cyano-2-fluorobenzyl)oxy)pyridin-2-yl)-2,3,5-trifluorobenzyl)-1-(2-methoxyethyl)-1H-benzo[d]imidazole-6-carboxylic acid] | 4.55 nM
13 | COCCn1c(Cc2cc(F)c(-c3cccc(OCc4ccc(C(F)(F)F)s4)n3)cc2F)nc2ccc(C(=O)O)cc21 [Example 864] | 3.71 nM
14 | N#Cc1ccc(COc2cccc(-c3cc(F)c(Cc4nc5c(F)cc(C(=O)O)cc5n4Cc4ncco4)cc3F)n2)c(F)c1 [Example 584, 2-(4-(6-((4-cyano-2-fluorobenzyl)oxy)pyridin-2-yl)-2,5-difluorobenzyl)-4-fluoro-1-(oxazol-2-ylmethyl)-1H-benzo[d]imidazole-6-carboxylic acid] | 0.23 nM
15 | N#Cc1ccc(COc2cccc(-c3cc(F)c(Cc4nc5ccc(C(=O)O)cc5n4CC4(CO)CC4)cc3F)n2)c(F)c1 [Example 637] | 1.18 nM
16 | NC(=O)c1ccc(COc2cc(-c3ccc(Cc4nc5ccc(C(=O)O)cc5[nH]4)c(F)c3)ccc2F)c(F)c1 [Example 469, 2-((3′-((4-carbamoyl-2-fluorobenzyl)oxy)-3,4′-difluoro-[1,1′-biphenyl]-4-yl)methyl)-1H-benzo[d]imidazole-6-carboxylic acid] | ≥ 1000 nM
17 | COc1cc(Cl)ccc1COc1nccc(-c2cc(F)c(Cc3nc4ccc(C(=O)O)cc4n3CC3(CC#N)CC3)cc2F)n1 [Example 446, 2-(4-(2-((4-chloro-2-methoxybenzyl)oxy)pyrimidin-4-yl)-2,5-difluorobenzyl)-1-((1-(cyanomethyl)cyclopropyl)methyl)-1H-benzo[d]imidazole-6-carboxylic acid] | 0.15 nM
18 | COCCn1c(Cc2cc(F)c(-c3nc(OCc4ccc(C#N)cc4F)c(F)cc3F)cc2F)nc2ccc(C(=O)O)cc21 [Example 538, 2-(4-(6-((4-cyano-2-fluorobenzyl)oxy)-3,5-difluoropyridin-2-yl)-2,5-difluorobenzyl)-1-(2-methoxyethyl)-1H-benzo[d]imidazole-6-carboxylic] | 4250 nM
19 | COCCn1c(Cc2ccc(-c3cccc(OCc4cnc(Cl)nc4OC)n3)cc2F)nc2ccc(C(=O)O)cc21 [Example 227, 2-(4-(6-((2-chloro-4-methoxypyrimidin-5-yl)methoxy)pyridin-2-yl)-2-fluorobenzyl)-1-(2-methoxyethyl)-1H-benzo[d]imidazole-6-carboxylic acid] | 14.3 nM
20 | N#Cc1ccc(COc2nccc(-c3ccc(Cc4nc5c(F)cc(C(=O)O)cc5n4Cc4ncco4)cc3F)n2)c(F)c1 [Example 618] | 1.48 nM
21 | CC(C)(Cn1c(Cc2ccc(-c3cccc(OCc4ccc(C#N)cc4F)n3)cc2F)nc2ccc(C(=O)O)cc21)C(F)F [Example 12, 2-(4-(6-((4-cyano-2-fluorobenzyl)oxy)pyridin-2-yl)-2-fluorobenzyl)-1-(3,3-difluoro-2,2-dimethylpropyl)-1H-benzo[d]imidazole-6-carboxylic acid] | 1.77 nM
22 | COCCn1c(Cc2ccc(-c3cccc(OCc4ccc(Br)c5nsnc45)n3)cc2F)nc2ccc(C(=O)O)cc21 [Example 151, 2-(4-(6-((7-bromobenzo[c][1,2,5]thiadiazol-4-yl)methoxy)pyridin-2-yl)-2-fluorobenzyl)-1-(2-methoxyethyl)-1H-benzo[d]imidazole-6-carboxylic acid] | 7.93 nM
23 | COCCn1c(Cc2ccc(-c3cccc(OCc4nnc(Cl)s4)n3)cc2F)nc2ccc(C(=O)O)cc21 [Example 590, 2-(4-(6-((5-chloro-1,3,4-thiadiazol-2-yl)methoxy)pyridin-2-yl)-2-fluorobenzyl)-1-(2-methoxyethyl)-1H-benzo[d]imidazole-6-carboxylic acid] | 3190 nM

system: not listed separately; assay: Microsomal stability, human liver microsomes (predicted hepatic clearance); settings: predicted from in vitro microsomal stability data

Row | Compound | Predicted Hepatic Clearance (Pred. Cl.)
24 | COCCn1c(Cc2cc(F)c(-c3ccc(F)c(OCc4cc(F)c(C#N)cc4F)n3)cc2F)nc2c(F)cc(C(=O)O)cc21 [Example 763] | 1.83 mL/min/kg
25 | COCCn1c(Cc2ccc(-c3cccc(OCc4ccc(C#N)cc4F)n3)c(NC(C)=O)c2)nc2ccc(C(=O)O)cc21 [Example 253, 2-(3-acetamido-4-(6-((4-cyano-2-fluorobenzyl)oxy)pyridin-2-yl)benzyl)-1-(2-methoxyethyl)-1H-benzo[d]imidazole-6-carboxylic acid] | 14 mL/min/kg
26 | COCCn1c(Cc2ccc(-c3cccc(OCc4ccccc4S(C)(=O)=O)n3)cc2F)nc2ccc(C(=O)O)cc21 [Example 510, 2-(2-fluoro-4-(6-((2-(methylsulfonyl)benzyl)oxy)pyridin-2-yl)benzyl)-1-(2-methoxyethyl)-1H-benzo[d]imidazole-6-carboxylic acid] | 14.5 mL/min/kg
27 | CCOP(=O)(OCC)c1ccc2nc(Cc3ccc(-c4cccc(OCc5ccc(C#N)cc5F)n4)cc3F)n(CCOC)c2c1 [Example 556, Diethyl (2-(4-(6-((4-cyano-2-fluorobenzyl)oxy)pyridin-2-yl)-2-fluorobenzyl)-1-(2-methoxyethyl)-1H-benzo[d]imidazol-6-yl)phosphonate] | 19.5 mL/min/kg
28 | COCCn1c(Cc2ccc(-c3cccc(OCc4cccc5cc[nH]c45)n3)cc2F)nc2ccc(C(=O)O)cc21 [Example 479, 2-(4-(6-((1H-indol-7-yl)methoxy)pyridin-2-yl)-2-fluorobenzyl)-1-(2-methoxyethyl)-1H-benzo[d]imidazole-6-carboxylic acid] | 9.33 mL/min/kg
29 | COCCn1c(Cc2ccc(-c3cc(-c4cnn(C)c4)cc(OCc4ccc(C#N)cc4F)n3)cc2F)nc2ccc(C(=O)O)cc21 [Example 99, 2-(4-(6-((4-cyano-2-fluorobenzyl)oxy)-4-(1-methyl-1H-pyrazol-4-yl)pyridin-2-yl)-2-fluorobenzyl)-1-(2-methoxyethyl)-1H-benzo[d]imidazole-6-carboxylic acid] | 2.33 mL/min/kg
30 | COCCn1c(Cn2cc(-c3csc(OCc4ccc(C#N)cc4F)n3)cn2)nc2ccc(C(=O)O)cc21 [Example 78, 2-((4-(2-((4-cyano-2-fluorobenzyl)oxy)thiazol-4-yl)-1H-pyrazol-1-yl)methyl)-1-(2-methoxyethyl)-1H-benzo[d]imidazole-6-carboxylic acid] | 7 mL/min/kg
